Laboratory results taken from patent US12668589B2, “N-formamidopyrazoline derivative as P2X3 receptor antagonist and use thereof” (HANGZHOU WESTAN PHARMACEUTICAL TECHNOLOGY CO., LTD, priority 2020, dated 2026).

Molecular target: T1, human P2X3 (Homo sapiens, UniProt P56373)
T1 sequence (P56373 1-397): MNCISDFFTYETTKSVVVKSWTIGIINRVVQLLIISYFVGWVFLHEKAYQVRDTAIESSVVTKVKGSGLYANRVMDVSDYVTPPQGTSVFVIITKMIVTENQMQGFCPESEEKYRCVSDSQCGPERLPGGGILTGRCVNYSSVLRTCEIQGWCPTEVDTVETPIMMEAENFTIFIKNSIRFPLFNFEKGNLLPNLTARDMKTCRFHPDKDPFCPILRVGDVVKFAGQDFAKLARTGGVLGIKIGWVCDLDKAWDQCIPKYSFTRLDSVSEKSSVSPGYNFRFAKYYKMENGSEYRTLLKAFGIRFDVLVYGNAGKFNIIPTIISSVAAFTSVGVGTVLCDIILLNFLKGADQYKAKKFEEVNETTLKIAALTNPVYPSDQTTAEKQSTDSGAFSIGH
Experiment: cell-based
Protocol: An HEK293 cell line was used as cells. HEK293 cells were placed in a 37° C. incubator with 5% CO2 for culture. Passage was conducted when the cells grew to a density of 80% to 90%. A culture medium in an original 60 mm culture dish was discarded. After the cells were washed 3 times with a sterilized PBS solution, and the solution was blotted up. […] After the trypsin was blotted up, 3 mL of a cell culture medium was added to resuspend the cells. 0.5 mL of a resuspension solution was taken to be added into a new culture dish, and an total culture solution was supplemented to 5 mL. The culture dish was gently shaken to distribute the cells evenly, and then placed in a 37° C. incubator with 5% CO2 for culture.
First, treated slides were spread in a small 35 mm culture dish. 100 μL of resuspended cells were added, and then a total amount of a culture medium was supplemented to 2 mL. Target genes were transferred into the HEK293 cell line by adopting a calcium transfection method. Small dishes to be transfected were subjected to medium change 1 hour before transfection. 2 mL of a fresh cell culture solution was added. A 1.5 mL EP tube was taken, 200 μL of a 0.25 M CaCl2) solution was added, and 3 μg of plasmids to be transfected were added, and even mixing was conducted to form a DNA-CaCl2 solution. […] A pipette tip was used for mixing while adding. After adding all, gentle blowing and beating were conducted 8 to 10 times. After still standing for 5 minutes, they were added into small dishes. The small dishes were shaken slightly to mix the solution evenly, and the placed in a cell incubator. Culture mediums were replaced after 8 to 10 hours. Electrophysiological experiments were performed 24 to 48 hours after transfection.
Electrophysiological recording electrodes were obtained by two-step pulling by using an electrode puller (PP-10, Narishige). After an internal solution is injected into the electrodes, a water inlet resistance is 3 to 5 MΩ. During the experiment, a high potassium salt internal solution containing nystatin (K2SO4 of 75 mM, KCl of 120 mM, MgSO4 of 5 mM, HEPES of 10 mM, adjusting pH to 7.2 with Tris-base, and used after filtration) was used as an electrode internal solution. After the cells were sealed by the electrodes, there was no need to further break cell membranes in a sucked manner, but the cell membranes were bored through the perforation of the nystatin to the cell membranes, to form a hole channel. […] A clamping voltage was −60 mV, a sampling frequency was 10 kHz, and filtering was conducted at 2 kHz.
A working concentration of a P2X3 receptor agonist ATP was 1 μM, and an interval time between two times of ATP administrations was 10 minutes.

IC50 [nM]	Compound
7540	Cc1ccc(C2=NN(C(=O)N[C@H](C)c3ccc(Cl)cc3)C[C@@H]2N2CCN(C)CC2=O)cc1 [Compound 2, (S)-4-(4-methyl-2-oxopiperazin-1-yl)-3-(4-methylphenyl)-N-((R)-1-(4-chlorophenyl)ethyl)-4,5-dihydro-1H-pyrazol-1-carboxamide]
215	Cc1ccc(C2=NN(C(=O)N[C@H](C)c3cnc(C(F)(F)F)nc3)C[C@@H]2N2CCOCC2=O)cc1 [Compound 3]
318	Cc1ccc(C2=NN(C(=O)N[C@H](C)c3cnc(C(F)(F)F)nc3)C[C@H]2N2CCOCC2=O)cc1 [Compound 3a, (R)-4-(3-oxomorpholin-4-yl)-3-(4-methylphenyl)-N-((R)-1-(2-(trifluoromethyl)pyrimidin-5-yl)ethyl)-4,5-dihydro-1H-pyrazol-1-carboxamide]
409	CC(=O)N(C)[C@H]1CN(C(=O)N[C@H](C)c2ccc(C(F)(F)F)cc2)N=C1c1ccc(C)cc1 [Compound 5]
353	CC(=O)N(C)[C@@H]1CN(C(=O)N[C@H](C)c2ccc(C(F)(F)F)cc2)N=C1c1ccc(C)cc1 [Compound 5a, (R)-4-(N-methylacetamido)-3-(4-methylphenyl)-N-((R)-1-(4-(trifluoromethyl)phenyl)ethyl)-4,5-dihydro-1H-pyrazol-1-carboxamide]
1230	COc1ccc([C@@H](C)NC(=O)N2C[C@H](N3CCOC3=O)C(c3ccc(C)cc3)=N2)cc1OC [Compound 6]
985	Cc1ccc(C2=NN(C(=O)N[C@H](C)c3ccc4c(c3)OCO4)C[C@@H]2N2CCCC2=O)cc1 [Compound 7, (S)-4-(2-oxopyrrolidin-1-yl)-3-(4-methylphenyl)-N-((R)-1-(3,4-(methylenedioxy)phenyl)ethyl)-4,5-dihydro-1H-pyrazol-1-carboxamide]
793	CC(=O)N1CCN([C@H]2CN(C(=O)N[C@H](C)c3ccc(C#N)cc3)N=C2c2ccc(C)cc2)C1=O [Compound 8, (S)-4-(3-acetyl-2-oxoimidazolidin-1-yl)-3-(4-methylphenyl)-N-((R)-1-(4-cyanophenyl)ethyl)-4,5-dihydro-1H-pyrazol-1-carboxamide]
529	COc1ccc([C@@H](C)NC(=O)N2C[C@H](N3CCCC3=O)C(c3ccc(C)cc3)=N2)nc1 [Compound 9]
216	Cc1ccc(C2=NN(C(=O)N[C@H](C)c3ccc(C(F)(F)F)cn3)C[C@@H]2N2CCCC2=O)cc1 [Compound 10]
136	Cc1ccc(C2=NN(C(=O)N[C@H](C)c3ccc(C(F)(F)F)cn3)C[C@H]2N2CCCC2=O)cc1 [Compound 10a]
357	CC(=O)N(C)[C@H]1CN(C(=O)N[C@H](C)c2ccc(Cl)nc2)N=C1c1ccc(C)cc1 [Compound 11]
281	CC(=O)N(C)[C@@H]1CN(C(=O)N[C@H](C)c2ccc(Cl)nc2)N=C1c1ccc(C)cc1 [Compound 11a]
436	Cc1ccc(C2=NN(C(=O)N[C@H](C)c3cnc(F)c(F)c3)C[C@@H]2N2CCOC2=O)cc1 [Compound 12]
322	Cc1ccc(C2=NN(C(=O)N[C@H](C)c3cnc(F)c(F)c3)C[C@H]2N2CCOC2=O)cc1 [Compound 12a]
257	Cc1ccc(C2=NN(C(=O)N[C@H](C)c3ccc(OC(F)(F)F)nc3)C[C@@H]2N2CCCC2=O)cc1 [Compound 13]

IC50 [nM]	Compound
329	Cc1ccc(C2=NN(C(=O)N[C@H](C)c3ccc(OC(F)(F)F)nc3)C[C@H]2N2CCCC2=O)cc1 [Compound 13a]
736	COc1ccc([C@@H](C)NC(=O)N2C[C@H](N3CCOCC3)C(c3ccc(F)cc3)=N2)cn1 [Compound 14, (S)-4-(morpholin-4-yl)-3-(4-fluorophenyl)-N-((R)-1-(6-methoxypyridin-3-yl)ethyl)-4,5-dihydro-1H-pyrazol-1-carboxamide]
2300	Cc1ccc(C2=NN(C(=O)N[C@H](C)c3ccc(C(F)(F)F)nc3)C[C@@H]2N(C)C(=O)CN(C)C)cc1 [Compound 15, (S)-4-(2-(dimethylamino)-N-methylacetamido)-3-(4-methylphenyl)-N-((R)-1-(6-(trifluoromethyl)pyridin-3-yl)ethyl)-4,5-dihydro-1H-pyrazol-1-carboxamide]
132	COC(=O)N(C)[C@H]1CN(C(=O)N[C@H](C)c2ccc(C(F)(F)F)nc2)N=C1c1ccc(OC)cc1 [Compound 16, (S)-4-(N-methyl-N-methoxycarbonylamino)-3-(4-methoxyphenyl)-N-((R)-1-(6-(trifluoromethyl)pyridin-3-yl)ethyl)-4,5-dihydro-1H-pyrazol-1-carboxamide]
88	COC(=O)N(C)[C@@H]1CN(C(=O)N[C@H](C)c2ccc(C(F)(F)F)nc2)N=C1c1ccc(OC)cc1 [Compound 16a, (R)-4-(N-methyl-N-methoxycarbonylamino)-3-(4-methoxyphenyl)-N-((R)-1-(6-(trifluoromethyl)pyridin-3-yl)ethyl)-4,5-dihydro-1H-pyrazol-1-carboxamide]
173	CC(=O)N1CCN([C@H]2CN(C(=O)N[C@H](C)c3ccc(C(F)(F)F)nc3)N=C2c2ccc(C)cc2)C1=O [Compound 18, (S)-4-(3-acetyl-2-oxoimidazolidin-1-yl)-3-(4-methylphenyl)-N-((R)-1-(6-(trifluoromethyl)pyridin-3-yl)ethyl)-4,5-dihydro-1H-pyrazol-1-carboxamide]
95	CC(=O)N1CCN([C@@H]2CN(C(=O)N[C@H](C)c3ccc(C(F)(F)F)nc3)N=C2c2ccc(C)cc2)C1=O [Compound 18a, (R)-4-(3-acetyl-2-oxoimidazolidin-1-yl)-3-(4-methylphenyl)-N-((R)-1-(6-(trifluoromethyl)pyridin-3-yl)ethyl)-4,5-dihydro-1H-pyrazol-1-carboxamide]
3860	CC(=O)N1CCN([C@H]2CN(C(=O)N[C@H](C)c3ccc(C(F)(F)F)nc3)N=C2c2ccc(C)cc2)CC1 [Compound 19]
85	Cc1ccc(C2=NN(C(=O)N[C@H](C)c3ccc(C(F)(F)F)nc3)C[C@H]2N2CCCC2=O)cc1 [Compound 21a]
46	Cc1ccc(C2=NN(C(=O)N[C@H](C)c3ccc(C(F)(F)F)nc3)C[C@H]2N2CCOC2=O)nc1 [Compound 23a, (R)-4-(2-oxooxazolidin-3-yl)-3-(5-methylpyridin-2-yl)-N-((R)-1-(6-(trifluoromethyl)pyridin-3-yl)ethyl)-4,5-dihydro-1H-pyrazol-1-carboxamide]
212	C[C@@H](NC(=O)N1C[C@H](N2CCOCC2=O)C(c2ccc(F)cc2)=N1)c1ccc(C(F)(F)F)nc1 [Compound 24, (S)-4-(3-oxomorpholin-4-y])-3-(4-fluorophenyl)-N-((R)-1-(2-(6-(trifluoromethyl)pyridin-3-yl)ethyl)-4,5-dihydro-1H-pyrazol-1-carboxamide]
145	C[C@@H](NC(=O)N1C[C@@H](N2CCOCC2=O)C(c2ccc(F)cc2)=N1)c1ccc(C(F)(F)F)nc1 [Compound 24a]
158	CC(=O)N(C)[C@H]1CN(C(=O)N[C@H](C)c2ccc(C(F)(F)F)nc2)N=C1c1ccc(C)cc1 [Compound 25]
112	CC(=O)N(C)[C@@H]1CN(C(=O)N[C@H](C)c2ccc(C(F)(F)F)nc2)N=C1c1ccc(C)cc1 [Compound 25a]
143	Cc1ccc(C2=NN(C(=O)N[C@H](C)c3cnc(C(F)(F)F)cn3)C[C@@H]2N2CCOCC2=O)cc1 [Compound 26]
332	Cc1ccc(C2=NN(C(=O)N[C@H](C)c3cnc(C(F)(F)F)cn3)C[C@H]2N2CCOCC2=O)cc1 [Compound 26a]
